From patent US20130251633A1, “SYSTEMS, METHODS, AND DEVICES FOR ULTRASONIC ASSESSMENT OF CANCER AND RESPONSE TO THERAPY” (The Trustees of Columbia University in the City of New York, priority 2010, published 2013)

Assays:
Assay type in all cases: in vivo, NCR nude mice
SK-NEP-1 xenografts = experiment: Tumor 2-D cross-sectional area by ultrasound, SK-NEP-1 xenografts
Description: (§1) To evaluate vascular response (blood volume, perfusion, and molecular expression), two human cancer cell lines (SK-NEP and NGP) were implanted in nude mice and allowed to develop for five weeks. High-frequency ultrasound imaging of the tumors was performed at 40 MHz using a Visualsonics Vevo 770 during bolus tail-vein injections of size-selected microbubble suspensions. […] The bolus was […] and the concentration was 5×10^8 microbubbles/mL. The change in intensity of the ultrasound signal was used to determine the relative blood volume. Targeted microbubbles bearing cyclic RGD-peptides (or cyclic RAD-peptides for the control microbubbles) were used to measure the level of active angiogenesis. The mice were imaged at 0, 1, 3, and 5 days. Immediately after the imaging sessions on days 0 and 3, 0.2 cc of BV (2.5 mg/mL) was administered to the mice. After day 5, the mice were euthanized, and their tumors excised for ex vivo analysis.
(§2) The identity of the neuroblastoma cell lines NGP and SK-NEP-1 were verified by STR profiling. […] The resulting xenografts were monitored for growth using bioluminescence. […] 40-μm sections were cut using a vibratome, and digital images subjected to computer-assisted quantitative analysis of tumor vessel architecture.
Xenografts formed in the kidney of NCR nude mice with the human Ewing family tumor cell line SK-NEP-1 are highly sensitive to VEGF blockade therapy, while human neuroblastoma NGP cell lines are much less responsive to VEGF blockade therapy. The intrarenally implanted xenograft tumors were monitored for growth and randomly assigned to biweekly injections of anti-VEGF antibody BV or vehicle. […] To confirm the characterization of responsiveness, 2-D tumor area was measured by ultrasonography, the results of which are shown in FIG. 11.
The tumor 2-D cross-sectional area was determined from the ultrasound images using Visualsonics software. Area measurements of the tumor were calculated from the ultrasound images using a ROI that encompassed the hypoechoic region of the kidney (tumor tissue). […]

NGP xenografts = experiment: Tumor 2-D cross-sectional area by ultrasound, NGP xenografts; details: NGP tumors, BV vs. control, 5 days
Description: (§3) The identity of the neuroblastoma cell lines NGP and SK-NEP-1 were verified by STR profiling. The cell lines were stably transfected with FUW-Luciferase plasmid and were selected and maintained in 1 mg/ml neomycin. 1×10^6 cells were injected intrarenally into 4-6 week old NCR female nude mice. The resulting xenografts were monitored for growth using bioluminescence. At a threshold corresponding to 1-2 g, tumors were randomized to control or treatment groups (cohort size 5-8 mice per modality and treatment groups). […] Animals were killed by CO2 inhalation at indicated time points (at day 5 after serial imaging studies, and at days 0, 1, 3, and 5 for control and lectin perfusion analyses). At euthanasia, mice were injected with fluorescein-labeled Lycopersicon esculentum lectin (100 μg/100 μl PBS). Vasculature was fixed by infusing 1% paraformaldehyde. 40-μm sections were cut using a vibratome, and digital images subjected to computer-assisted quantitative analysis of tumor vessel architecture.

SK-NEP-1 tumors [1] = experiment: CEUS perfusion imaging (relative microbubble perfusion), SK-NEP-1 tumors; details: SK-NEP-1 cohorts, days 0 to 5, linear mixed-effects model
Description: The identity of the neuroblastoma cell lines NGP and SK-NEP-1 were verified by STR profiling. The cell lines were stably transfected with FUW-Luciferase plasmid and were selected and maintained in 1 mg/ml neomycin. 1×10^6 cells were injected intrarenally into 4-6 week old NCR female nude mice. The resulting xenografts were monitored for growth using bioluminescence. At a threshold corresponding to 1-2 g, tumors were randomized to control or treatment groups (cohort size 5-8 mice per modality and treatment groups). BV (0.5 mg) was administered immediately after imaging on days 0 and 3. Animals were killed by CO2 inhalation at indicated time points (at day 5 after serial imaging studies, and at days 0, 1, 3, and 5 for control and lectin perfusion analyses). […] 40-μm sections were cut using a vibratome, and digital images subjected to computer-assisted quantitative analysis of tumor vessel architecture. […]
Mice were anesthetized and placed on a physiological monitoring platform, and their tail veins were catheterized for injections using a 27-gauge, ½-inch butterfly catheter. […] Contrast enhancement was detected using background subtraction from reference videos acquired before the microbubble injection. […] Relative microbubble perfusion (rmp) was defined as the maximum signal enhancement and determined by regression of a monoexponential function to the time-intensity curve during microbubble uptake. […]

NGP tumors [2] = experiment: CEUS perfusion imaging (relative microbubble perfusion), NGP tumors; details: for increase in mean rmp: BV-treated NGP tumors
Description: The identity of the neuroblastoma cell lines NGP and SK-NEP-1 were verified by STR profiling. The cell lines were stably transfected with FUW-Luciferase plasmid and were selected and maintained in 1 mg/ml neomycin. 1×10^6 cells were injected intrarenally into 4-6 week old NCR female nude mice. The resulting xenografts were monitored for growth using bioluminescence. At a threshold corresponding to 1-2 g, tumors were randomized to control or treatment groups (cohort size 5-8 mice per modality and treatment groups). BV (0.5 mg) was administered immediately after imaging on days 0 and 3. Animals were killed by CO2 inhalation at indicated time points (at day 5 after serial imaging studies, and at days 0, 1, 3, and 5 for control and lectin perfusion analyses). At euthanasia, mice were injected with fluorescein-labeled Lycopersicon esculentum lectin (100 μg/100 μl PBS). Vasculature was fixed by infusing 1% paraformaldehyde. 40-μm sections were cut using a vibratome, and digital images subjected to computer-assisted quantitative analysis of tumor vessel architecture.
Size-selected microbubbles described above were used for perfusion and molecular imaging. Lipid-coated, perfluorobutane-filled microbubbles were produced by mechanical agitation. For targeting, a maleimide group was included on the distal end of the polyethylene glycol group on the lipopolymer used to coat the microbubbles. Residual lipid was removed and 4.5-μm median diameter microbubbles were isolated by centrifugation. Targeted microbubbles were then conjugated to cysteine-tagged RGD (target) or RAD (control) peptides and washed again to remove residual peptide. RGD conjugation was confirmed by HPLC and MALDI-TOF. Ultrasound imaging was performed using a small-animal ultrasound scanner with a 30-MHz transducer.
Mice were anesthetized and placed on a physiological monitoring platform, and their tail veins were catheterized for injections using a 27-gauge, ½-inch butterfly catheter. The transducer was positioned at the tumor midsection, and 2-D ultrasound images were acquired using a field of view of 17×17 mm. A 50-μL bolus (2.5×10^7 microbubbles) followed by a 15-μL saline flush were injected while imaging at the maximum frame rate for respiratory gating (˜11 frames/second) and 100% power. Maximum intensity persistence (MIP) images were acquired using non-targeted RAD-microbubbles. Contrast enhancement was detected using background subtraction from reference videos acquired before the microbubble injection. […] Relative microbubble perfusion (rmp) was defined as the maximum signal enhancement and determined by regression of a monoexponential function to the time-intensity curve during microbubble uptake. […]

SK-NEP-1 tumors [3] = experiment: Ultrasound molecular imaging with RGD-microbubbles (relative targeted microbubble adhesion, αvβ3 integrin), SK-NEP-1 tumors
Description: as §3

NGP tumors [4] = experiment: Ultrasound molecular imaging with RGD-microbubbles (relative targeted microbubble adhesion, αvβ3 integrin), NGP tumors; details: exponential decay model, days 0-5
Description: as §1, with “The mice were imaged at 0, 1, 3, and 5 days. Immediately after the imaging sessions on days 0 and 3, 0.2 cc of BV (2.5 mg/mL) was administered to the mice. After day 5, the mice were euthanized, and their tumors excised for ex vivo analysis.” left out
as §2, with “architecture. […]” for “architecture.”
For molecular ultrasound imaging, a series of lower frequency pulses was applied to destroy microbubbles in the field of view 10 minutes after microbubble injection. […] The relative targeted microbubble adhesion (rtma) was measured as the difference in the linearized grayscale pixel intensities within the ROI for targeted RGD-microbubbles, minus that for RAD-microbubbles. […]

SK-NEP-1 tumors [5] = experiment: Fluorescein-labeled lectin perfusion analysis of tumor vasculature, SK-NEP-1 tumors
Description: as §3
After binarization of the images, microvessel density (MVD) was estimated by the total number of white pixels per field. The results shown in FIGS. 10A-10B are as the mean pixel count per image +SD.
Computer-assisted image analysis was used to examine changes in specific vessel features. […] To more closely estimate numbers of vessels, total length can be calculated by skeletonizing images and then scoring these by computer. […] New vascular branches can form a dynamic and relatively VEGF-dependent element in angiogenic networks.

NGP tumors [6] = experiment: Fluorescein-labeled lectin perfusion analysis of tumor vasculature, NGP tumors; details: BV-treated NGP tumors
Description: The identity of the neuroblastoma cell lines NGP and SK-NEP-1 were verified by STR profiling. The cell lines were stably transfected with FUW-Luciferase plasmid and were selected and maintained in 1 mg/ml neomycin. 1×10^6 cells were injected intrarenally into 4-6 week old NCR female nude mice. The resulting xenografts were monitored for growth using bioluminescence. At a threshold corresponding to 1-2 g, tumors were randomized to control or treatment groups (cohort size 5-8 mice per modality and treatment groups). BV (0.5 mg) was administered immediately after imaging on days 0 and 3. Animals were killed by CO2 inhalation at indicated time points (at day 5 after serial imaging studies, and at days 0, 1, 3, and 5 for control and lectin perfusion analyses). […] 40-μm sections were cut using a vibratome, and digital images subjected to computer-assisted quantitative analysis of tumor vessel architecture.
Quantified changes in lectin perfusion studies of tumor vasculature were consistent with changes detected by CEUS. […]
Computer-assisted image analysis was used to examine changes in specific vessel features. If vascular area is calculated from total pixels, large-diameter vessels contributed disproportionately to MVD as compared to fine capillaries. To more closely estimate numbers of vessels, total length can be calculated by skeletonizing images and then scoring these by computer. […]

With bevacizumab [BV] the “changes in tumor size” value (SK-NEP-1 xenografts; SK-NEP tumor-bearing mice, 0.2 cc BV (2.5 mg/mL) on days 0 and 3) was “no significant changes”, the “change in tumor 2-D cross-sectional area (ultrasound)” value (SK-NEP-1 xenografts; SK-NEP-1 mice, BV 0.5 mg on days 0 and 3, over the 5 day period) was −5% and the “tumor growth in comparison to control” value (SK-NEP-1 xenografts; SK-NEP-1 xenografts, days 3 and 5) was “significantly arrested tumor growth”. For the same substance, the tumor growth (NGP xenografts) was “unaffected”, the “slopes of the linear regression of rmp, BV-treated vs control” value (SK-NEP-1 tumors [1]) was “statistically different” and the “increase in mean rmp” value (NGP tumors [2]; by day 1) was 38±21%. The “increase in mean rmp” value (NGP tumors [2]; by day 3) was 57±48%, the “increase in mean rmp” value (NGP tumors [2]; by day 5) was 105±41% and the “slopes of the linear regression of rmp, BV-treated vs control” value (NGP tumors [2]; NGP cohorts, days 0 to 5, linear mixed-effects model) was “no difference”. The “reduction of the difference in image intensity (before/after destruction pulse)” value (SK-NEP-1 tumors [3]; BV-responsive tumors, RGD microbubbles, after 3 days following treatment) was over 95%, the “decrease in mean rtma” value (SK-NEP-1 tumors [3]; BV-treated SK-NEP-1, by day 5) was 99±5% and the “difference in rtma decay rates, BV-treated vs control” value (SK-NEP-1 tumors [3]; SK-NEP-1, exponential decay model, days 0-5) was “statistically different”. For the same substance, the “αvβ3 integrin binding of RGD-bearing microbubbles in the tumor region” value (SK-NEP-1 tumors [3]; treated SK-NEP mice, three days following BV administration) was “significant drop”, the “difference in rtma decay rates, BV-treated vs control” value (NGP tumors [4]) was “no difference was observed” and the “decrease in microvessel density (MVD) compared to day 0 controls” value (SK-NEP-1 tumors [5]; BV-treated SK-NEP-1 tumors, day 1) was 66%. The total vessel length (SK-NEP-1 tumors [5]; SK-NEP-1, days 1, 3, 5) was “significantly decreased”, the “total vascular branch number” value (SK-NEP-1 tumors [5]; SK-NEP-1, days 3 and 5) was “significantly decreased” and the “microvessel density (MVD) compared to day 0 controls” value (NGP tumors [6]) was “did not change”.
